Common to all, as to assay type: in vivo
In one experiment the test system is ALOMY. The experiment can be described thus: Herbicidal post-emergence action. The conditions noted are these: 80 g/ha, visual assessment after about three weeks, 100% = plants have died. The protocol: (§1) 2. Herbicidal Post-Emergence Action
(§2) • Seeds of monocotylidonous and dicotylidonous weed and crop plants are placed in sandy loam in wood fibre pots, covered with soil and cultivated in a greenhouse under good growth conditions. Two to three weeks after sowing, the test plants are treated at the one-leaf stage. The test compounds, formulated as wettable powders (WP), are then with a water application rate of 600 l/ha (converted), with 0.2% of wetting agent added, sprayed onto the green parts of the plants in different amounts. After the test plants have been kept in the greenhouse under optimum growth conditions for about three weeks, the effect of the preparations is assessed visually in comparison to untreated controls (herbicidal effect in percent: 100% effect=the plants have died, 0% effect=like control plants). Post-Emergence, 80 g/ha

The test system of a further experiment is AVEFA. Briefly: Herbicidal post-emergence action. The conditions noted are these: 80 g/ha, visual assessment after about three weeks, 100% = plants have died. The protocol: as §1, §2
For the next experiment, the system named is ECHCG. Briefly: Herbicidal post-emergence action. The conditions noted are these: 80 g/ha, visual assessment after about three weeks, 100% = plants have died. The protocol: as §1, §2
A further experiment deals with LOLMU. The experiment can be described thus: Herbicidal post-emergence action. The settings on record: 80 g/ha, visual assessment after about three weeks, 100% = plants have died. The protocol: as §1, §2
The next experiment deals with SETVI. The experiment can be described thus: Herbicidal post-emergence action. The settings on record: visual assessment after about three weeks, 100% = plants have died; for pest or weed control at 80 g/ha: 504 h, read-out: herbicidal effect in percent, SETVI; for herbicidal effect in percent, SETVI: 80 g/ha. The protocol:
as §1, §2

Experiment [1] concerns monocotylidonous and dicotylidonous weed and crop plants. Briefly: Herbicidal pre-emergence action. The settings on record: 320 g/ha, visual assessment after three weeks, 100% = plants have died; for herbicidal effect in percent, ALOMY: ALOMY = Alopecurus myosuroides; for herbicidal effect in percent, AVEFA: AVEFA = Avena fatua; for herbicidal effect in percent, LOLMU: LOLMU = Lolium multiflorum; for herbicidal effect in percent, SETVI: SETVI = Setaria viridis; for herbicidal effect in percent, ECHCG: ECHCG = Echinochloa crus-galli; for herbicidal effect in percent, VIOTR: VIOTR = Viola tricolor. From the text:
1. Herbicidal Pre-Emergence Action
• Seeds of monocotylidonous and dicotylidonous weed and crop plants are placed in sandy loam in wood fibre pots and covered with soil. The test compounds, formulated in the form of wettable powders (WP), are then, as an aqueous suspension with a water application rate of 600 l/ha (converted), with 0.2% of wetting agent added, applied to the surface of the covering soil in different amounts. • After the treatment, the pots are placed in a greenhouse and kept under good growth conditions for the test plants. The visual assessment of the emergence damage on the test plants is carried out after a trial period of three weeks by comparison with the untreated controls (herbicidal effect in percent: 100% effect=the plants have died, 0% effect=like control plants).

For experiment [2], the system named is larvae of the mustard beetle (Phaedon cochleariae). The experiment can be described thus: Phaedon test (PHAECO spray treatment). The settings on record: application rate of 500 g/ha; Chinese cabbage leaf discs sprayed; after 7 days. The protocol: Phaedon Test […] Spray Treatment Solvents: 78.0 parts by weight of acetone • • 1.5 parts by weight of dimethylformamide Emulsifier: 0.5 part by weight of alkylaryl polyglycol ether To produce a suitable preparation of active compound, one part by weight of active compound is mixed with the stated amounts of solvents and emulsifier, and the concentrate is diluted with emulsifier-containing water to the desired concentration. Discs of Chinese cabbage leaves (Brassica pekinensis) are sprayed with an active compound preparation of the desired concentration and, after drying, populated with larvae of the mustard beetle (Phaedon cochleariae).

For the compound `CCc1cc(C)cc(CC)c1C1C(=O)C2CC(C3OCCCO3)CC2C1=O` (centres unmarked) [I-a-5, 2-(2,6-Diethyl-4-methylphenyl)-5-(1,3-dioxan-2-yl)tetrahydropentalene-1,3(2H,3aH)-dione], the “herbicidal effect in percent, ALOMY” value in the experiment with ALOMY is 100%. For the same compound, in the experiment with AVEFA, the “herbicidal effect in percent, AVEFA” value is given as 100%. Besides, the “herbicidal effect in percent, ECHCG” value in the experiment with ECHCG came to 100%. Also, the “herbicidal effect in percent, LOLMU” value in the experiment with LOLMU is 100%. In the experiment on SETVI, the pest or weed control at 80 g/ha was determined as 100%. In experiment [1], the “herbicidal effect in percent, ALOMY” value is given as 100%; the “herbicidal effect in percent, AVEFA” value stood at 90%; the “herbicidal effect in percent, LOLMU” value is 100%; the “herbicidal effect in percent, SETVI” value came out at 90%.
For `CCc1cc(C)cc(CC)c1C1=C(OC(=O)C(C)(C)C)C2CC(C(OC)OC)CC2C1=O` (mixture of isomers) [I-b-5], the “herbicidal effect in percent, ALOMY” value (in the experiment on ALOMY; in experiment [1]) was 100% in each case. In addition, the “herbicidal effect in percent, AVEFA” value (in the experiment with AVEFA; in experiment [1]) was 100% throughout. Further, the “herbicidal effect in percent, ECHCG” value (in the experiment with ECHCG; in experiment [1]) was 100% throughout. Moreover, the “herbicidal effect in percent, LOLMU” value (with LOLMU; in experiment [1]) was 100% each time. The “herbicidal effect in percent, SETVI” value amounted to 100% with SETVI and 90% in experiment [1].
Take `CCc1cc(C)cc(CC)c1C1C(=O)C2CC(COC(=O)NCc3ccccc3)CC2C1=O` (mixture of isomers) [I-a-47]: in experiment [2], the “effect in % (beetle larvae killed)” value came out at 100%.
In the case of `CCc1cc(C)cc(CC)c1C1C(=O)C2CC(OC)CC2C1=O` (centres unmarked) [I-a-22], the “herbicidal effect in percent, ALOMY” value (in the experiment with ALOMY; in experiment [1]) was 100% each time. Also, the “herbicidal effect in percent, AVEFA” value with AVEFA was 100%; in experiment [1], 90%. For the same compound, the “herbicidal effect in percent, ECHCG” value (in the experiment with ECHCG; in experiment [1]) was 100% each time. For the same compound, the “herbicidal effect in percent, LOLMU” value (with LOLMU; in experiment [1]) was 100% each time. Moreover, the “herbicidal effect in percent, SETVI” value (in the experiment with SETVI; in experiment [1]) was 100% each time.
With `CCc1cc(C)cc(CC)c1C1=C(OC(=O)C(C)(C)C)C2CC(/C=N/OC)CC2C1=O` (centres unmarked) [I-b-1, 2-(2,6-Diethyl-4-methylphenyl)-5-(methoxyimino)methyl-3-oxo-3,3a,4,5,6,6a-hexahydropentalen-1-yl 2,2-dimethylpropanoate], the “herbicidal effect in percent, ALOMY” value with ALOMY stood at 100%. Besides, the “herbicidal effect in percent, AVEFA” value in the experiment on AVEFA stood at 100%. In the experiment on ECHCG, the “herbicidal effect in percent, ECHCG” value came out at 100%. Besides, the “herbicidal effect in percent, LOLMU” value in the experiment on LOLMU was 100%. Also, in the experiment on SETVI, the pest or weed control at 80 g/ha stood at 100%. In experiment [1], the “herbicidal effect in percent, ALOMY” value was found to be 100%; the “herbicidal effect in percent, AVEFA” value worked out at 90%; the “herbicidal effect in percent, ECHCG” value amounted to 100%; the “herbicidal effect in percent, LOLMU” value is reported as 100%. Further, in experiment [1], the “herbicidal effect in percent, SETVI” value turned out to be 100% and the “herbicidal effect in percent, VIOTR” value was 90%.
For `CCc1cc(C)cc(CC)c1C1C(=O)C2CC(O)CC2C1=O` (centres unmarked) [I-a-23], the “herbicidal effect in percent, ALOMY” value in the experiment on ALOMY was 70%. In the experiment on AVEFA, the “herbicidal effect in percent, AVEFA” value was 60%. Besides, the “herbicidal effect in percent, ECHCG” value (in the experiment on ECHCG; in experiment [1]) was 100% each time. The “herbicidal effect in percent, LOLMU” value in the experiment with LOLMU is on record as 90%. Also, the “herbicidal effect in percent, SETVI” value with SETVI worked out at 100%; in experiment [1], 90%.
Take `CCc1cc(C)cc(CC)c1C1C(=O)C2CC(C(=O)OC)CC2C1=O` (centres unmarked) [I-a-9]: the “herbicidal effect in percent, ALOMY” value (in the experiment with ALOMY; in experiment [1]) was 100% throughout. The “herbicidal effect in percent, AVEFA” value with AVEFA stood at 90%; in experiment [1], 80%. For the same compound, the “herbicidal effect in percent, ECHCG” value (in the experiment on ECHCG; in experiment [1]) was 100% each time. Further, the “herbicidal effect in percent, LOLMU” value (in the experiment with LOLMU; in experiment [1]) was 100% throughout. Besides, the “herbicidal effect in percent, SETVI” value is on record as 100% in the experiment with SETVI and 90% in experiment [1].
With `CCc1cc(C)cc(CC)c1C1C(=O)C2CC(C3OCCO3)CC2C1=O` (centres unmarked) [I-a-10], in the experiment on ALOMY, the “herbicidal effect in percent, ALOMY” value is reported as 100%. Besides, the “herbicidal effect in percent, AVEFA” value in the experiment on AVEFA came to 100%. For the same compound, the “herbicidal effect in percent, ECHCG” value with ECHCG is reported as 100%. The “herbicidal effect in percent, LOLMU” value in the experiment with LOLMU came out at 100%. In the experiment on SETVI, the “herbicidal effect in percent, SETVI” value was determined as 100%. Further, in experiment [1], the “herbicidal effect in percent, ALOMY” value is listed as 100%; the “herbicidal effect in percent, AVEFA” value is given as 90%; the “herbicidal effect in percent, ECHCG” value was 100%; the “herbicidal effect in percent, LOLMU” value stood at 100%. In experiment [1], the “herbicidal effect in percent, SETVI” value came to 100% and the “herbicidal effect in percent, VIOTR” value is 90%.
Take `CCc1cc(C)cc(CC)c1C1=C(O)C2CC(C=NOC)CC2C1=O` (centres unmarked) [I-a-13, 5-(2,6-diethyl-4-methylphenyl)-6-hydroxy-4-oxo-1,2,3,3a,4,6a-hexahydropentalene-2-carbaldehyde O-methyloxime]: in the experiment with ALOMY, the “herbicidal effect in percent, ALOMY” value is 100%. The “herbicidal effect in percent, AVEFA” value in the experiment with AVEFA is on record as 100%. For the same compound, the “herbicidal effect in percent, ECHCG” value with ECHCG is listed as 100%. Besides, the “herbicidal effect in percent, LOLMU” value with LOLMU is 100%. Further, the pest or weed control at 80 g/ha in the experiment on SETVI came to 100%. Besides, in experiment [1], the “herbicidal effect in percent, AVEFA” value worked out at 80%; the “herbicidal effect in percent, LOLMU” value amounted to 100%; the “herbicidal effect in percent, VIOTR” value was 100%. For the same compound, the “herbicidal effect in percent, STEME” value in experiment [1] (STEME = Stellaria media) came out at 100%. In addition, the “herbicidal effect in percent, VERPE” value in experiment [1] (VERPE = Veronica persica) came out at 90%.
For `CCc1cc(C)cc(CC)c1C1=C(OC(=O)C(C)(C)C)C2CC(C3OCCO3)CC2C1=O` (mixture of isomers) [I-b-4], the “herbicidal effect in percent, ALOMY” value in the experiment with ALOMY is on record as 100%. Besides, in the experiment on AVEFA, the “herbicidal effect in percent, AVEFA” value is 90%. Besides, the “herbicidal effect in percent, ECHCG” value in the experiment with ECHCG was found to be 100%. Besides, the “herbicidal effect in percent, LOLMU” value in the experiment on LOLMU worked out at 100%. For the same compound, the “herbicidal effect in percent, SETVI” value in the experiment with SETVI came to 100%. For the same compound, in experiment [1], the “herbicidal effect in percent, ALOMY” value is listed as 100%; the “herbicidal effect in percent, AVEFA” value is 90%; the “herbicidal effect in percent, ECHCG” value is recorded as 100%; the “herbicidal effect in percent, LOLMU” value is recorded as 100%. In addition, in experiment [1], the “herbicidal effect in percent, SETVI” value was determined as 100% and the “herbicidal effect in percent, VIOTR” value came out at 90%.
Regarding `CCc1cc(C)cc(CC)c1C1C(=O)C2CC(COC(=O)Nc3ccccc3)CC2C1=O` (mixture of isomers) [I-a-44], in experiment [2], the “effect in % (beetle larvae killed)” value is reported as 100%.
In the case of `CCc1cc(C)cc(CC)c1C1C(=O)C2CC(C#N)CC2C1=O` (centres unmarked) [I-a-4, 5-(2,6-Diethyl-4-methylphenyl)-4,6-dioxooctahydropentalene-2-carbonitrile], the “herbicidal effect in percent, ALOMY” value in the experiment on ALOMY was found to be 50%. For the same compound, the “herbicidal effect in percent, AVEFA” value with AVEFA was determined as 90%. In the experiment on ECHCG, the “herbicidal effect in percent, ECHCG” value stood at 100%. The “herbicidal effect in percent, LOLMU” value in the experiment with LOLMU is 60%. Further, the pest or weed control at 80 g/ha in the experiment on SETVI came to 100%. In addition, in experiment [1], the “herbicidal effect in percent, ECHCG” value amounted to 100% and the “herbicidal effect in percent, SETVI” value was determined as 90%.

The record behind these values is patent US9101133B2, “Phenyl-substituted bicyclooctane-1,3-dione-derivatives” (BAYER INTELLECTUAL PROPERTY GMBH, priority 2010, dated 2015).
